Results from article PMC8908514 (ACS Omega, 2022).

What was measured:
[1] = In vitro hemolysis on human red blood cells; assay type: cell-based; settings: red blood cells (2% final suspension), % Haemolysis
P. berghei ANKA = assay: Four day suppressive test in P. berghei-infected mice; assay type: in vivo, P. berghei (BALB/c mice)
[2] = Experimental complexation with iron; assay type: binding; settings: ligand–iron(III), stoichiometry 1, text

CCN(CC)CCCC(C)Nc1ccnc2cc(Cl)ccc12 (stereo not shown) [CQ, chloroquine]
hemolysis at 45 min, 1 mM [1]: 7.4% | parasitemia reduction percentage (P. berghei ANKA; 20 mg kg^–1, day 4): 99.80% | %P, percentage of parasitemia (P. berghei ANKA; 20 mg kg^–1 for 4 days, day 4 post-infection, n = 6): 0.2% | binding constant [2]: about 6300 M^–1
